Marks after values point to notes of the source that are not given here.

This is an account of results in article PMC7318222, “A Family of Water‐Immiscible, Dipolar Aprotic, Diamide Solvents from Succinic Acid” (Chemsuschem, 2020).

For one data set, the target named is T1, ERα (Homo sapiens, UniProt P03372).
T1 construct: expression construct for the full-length human receptor under investigation; expressed in transfected cells; host or cells: human U2-OS cells (ATCC HTB-96), stably transfected
T1 sequence (P03372 1-595): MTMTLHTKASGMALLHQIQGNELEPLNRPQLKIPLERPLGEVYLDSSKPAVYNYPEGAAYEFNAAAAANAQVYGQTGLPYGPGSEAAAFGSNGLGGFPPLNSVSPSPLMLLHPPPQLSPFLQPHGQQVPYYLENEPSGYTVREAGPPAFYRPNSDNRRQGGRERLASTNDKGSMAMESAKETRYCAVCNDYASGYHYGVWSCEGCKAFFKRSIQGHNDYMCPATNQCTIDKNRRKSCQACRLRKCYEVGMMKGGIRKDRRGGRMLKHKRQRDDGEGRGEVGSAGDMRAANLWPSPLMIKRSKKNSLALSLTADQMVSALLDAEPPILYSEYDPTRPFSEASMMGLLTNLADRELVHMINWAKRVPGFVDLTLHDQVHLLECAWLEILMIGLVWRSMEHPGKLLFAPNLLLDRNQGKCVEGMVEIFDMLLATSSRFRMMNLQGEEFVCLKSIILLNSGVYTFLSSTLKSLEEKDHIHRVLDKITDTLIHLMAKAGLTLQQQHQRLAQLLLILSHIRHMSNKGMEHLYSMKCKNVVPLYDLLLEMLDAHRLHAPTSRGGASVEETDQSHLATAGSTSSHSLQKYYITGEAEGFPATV
Put plainly: ERα CALUX reporter gene assay. Further details: key: –: no effect observed up to the highest test concentration. Type of data set: cell-based. Particulars: PC10, 24 h exposure. The text has this: Toluene ≥99.0%, hexane ≥99.5%,
DCM ≥99.5%, chloroform ≥99.5%, DMSO ≥99.0% were purchased from VWR. N,N-diethyl-4-nitroaniline ≥98.0% was purchased from Alfa Aeser. Cyrene was supplied by Circa group. N-butylpyrrolidinone was supplied by Eastman chemicals. N,N-dimethylformamide 99.9% and N,N-dimethylacetamide 99.9% were purchased from Fischer. The flakes of Ultrason® E3020 P Polyarylethersulfone of 55,000 Da were obtained from INGE.BASF, Germany. The CALUX cell lines have been described previously.[1] They are based on human U2-OS cells (ATCC, HTB-96) stably transfected with an expression construct for the full-length human receptor under investigation, and a reporter construct consisting of multimerized responsive elements for the cognate receptor coupled to a minimal promoter element (TATA) and a luciferase gene. Cells were maintained as described previously,[2] using cell culture media and supplements from Fisher Scientific as described in the experimental procedures section. […]
In vitro reporter gene assays
The automated CALUX assays were carried out similarly as described earlier,[12] with some adaptations. In brief, the assay was performed in CO2 independent medium (Fisher Scientific, […]
supplement (Fisher Scientific, 11574466), 10 U/mL penicillin and 10 µg/mL streptomycin. A cell suspension in assay medium was made of 1 × 10^5cells/mL, and white 384-wells plates were seeded with 30 µl cell suspension/well. After 24 h, exposure medium was prepared. A dilution series in 0.5log unit increments of each test compound (in DMSO) was added to a 96-wells plate containing assay medium (2% v/v). Of this exposure mixture, 30 µl was added to the assay plates containing the CALUX cells, resulting in a final DMSO concentration of 1%. Additionally, DMSO blanks and a full dose response curve of the relevant reference compound were included on each plate. All samples were tested in triplicate. The preparation of the compound dilution series as well as the exposure of the cells were performed on a Hamilton StarLET liquid handling robot coupled to a Cytomat incubator.
Directly after exposure, plates were sealed with non-breathing plate seals (Plate sealer, easy seal transparent; Greiner-Bio-One, 676001). After 24 h the exposure medium was removed using an EL406 washer-dispenser (BioTek) and 10 µl/well triton lysisbuffer was added by the EL406.
Subsequently, the luciferase signal was measured in a luminometer (InfinitePro coupled to a Connect Stacker, both TECAN). In order to be able to detect receptor antagonism, several assays were also performed in antagonistic mode. The assay procedure was as described above, with the only exception that the EC50 concentration of the reference agonist was present during the exposure.
The luminometer data was analysed as follows; the average of the triplicate wells was determined, and the average blank (DMSO) value was subtracted. For receptor-based assays the maximum response elicited by the reference compound was set to 100% (full receptor- or pathway activation), and the other values were scaled accordingly. […] For antagonist- and cytotoxicity experiments, PC20 values were determined instead, which was defined as the concentration where the test compound causes a 20% decrease in the basal signal, which was […]
curve, the signal induction above background (DMSO) was determined, and the concentration where the compound elicited a 1.5-fold increase above background was used as LEC.

On the set-up of data set [1]: key to C (carcinogenicity) / M (mutagenicity) / R (reproduction toxicity) / S (skin sensitization): −: absence of property; +: presence of property; ?: no prediction possible. Particulars: cited from earlier work.
On the set-up of data set [2]: method as in PubChem. Particulars: data obtained from PubChem; ref PubChem; cited from earlier work.
Setting [3] is: exp: conclusion based on reliable experimental data.

As for `CCCCN(CC)C(=O)CCC(=O)N(CC)CCCC` [EBSA, N,N′‐diethyl‐N,N′‐dibutylsuccindiamide], the “LEC ERα” value on ERα was “–”.
On to `CCCCN(CCCC)C(=O)CCC(=O)N(CCCC)CCCC` [TBSA, N,N,N′,N′‐tetrabutylsuccindiamide], for which the “LEC ERα” value on ERα was “–”.
As for `CCCCN(C)C(=O)CCC(=O)N(C)CCCC` [MBSA, N,N′‐dimethyl‐N,N′‐dibutylsuccindiamide], on ERα, the “LEC ERα” value is “–”.
In the case of `CCCCN1CCCC1=O` [NBP, N‐Butylpyrrolidinone, reference compound], in data set [1] (setting [3]), the “M (mutagenicity)” value is listed as “− (exp)”, the “R (reproduction toxicity)” value was “− (exp)” and the “S (skin sensitization)” value is “− (exp)”. Moreover, in data set [1] (experimental data), the “M (mutagenicity), in words” value is given as “negative”; the “R (reproduction toxicity), in words” value was “negative”; the “S (skin sensitization), in words” value is reported as “negative”. Also, the “LEC ERα” value at ERα is recorded as “–”.
Regarding `CN1CCCC1=O` [NMP, N‐methyl‐2‐pyrrolidone, reference compound], the “Log P (o/w)” value in data set [2] is −0.38^[d]. Also, in data set [1] (setting [3]), the “C (carcinogenicity)” value is “− (exp)”, the “M (mutagenicity)” value was “− (exp)”, the “R (reproduction toxicity)” value is “+ (exp)” and the “S (skin sensitization)” value is “− (exp)”. Also, in data set [1] (experimental data), the “C (carcinogenicity), in words” value is recorded as “negative”; the “M (mutagenicity), in words” value is “negative”; the “R (reproduction toxicity), in words” value was “positive”; the “S (skin sensitization), in words” value is reported as “negative”. On ERα, the “LEC ERα” value is “–”.
